Reference: publication PMC5040960, “A single molecule assay to probe monovalent and multivalent bonds between hyaluronan and its key leukocyte receptor CD44 under force” (Scientific Reports, 2016)

Biological target: T1, streptavidin (SAv) (Streptomyces avidinii, UniProt P22629)
T1 construct: commercial lyophilized streptavidin (Sigma Aldrich), homotetramer, immobilised as monolayer on biotinylated OEG
Assay: AFM single molecule force spectroscopy, Bell-Evans fit
Type: binding
Settings: labelled compound (biotin tethered to AFM tip by PEG linker and thiol-gold bond); koff extrapolated to zero force; 10 mM HEPES pH 7.4, 150 mM NaCl, ambient temperature
Description: AFM single molecule force spectroscopy, Bell-Evans fit on streptavidin (SAv)

T1 sequence (P22629 25-183): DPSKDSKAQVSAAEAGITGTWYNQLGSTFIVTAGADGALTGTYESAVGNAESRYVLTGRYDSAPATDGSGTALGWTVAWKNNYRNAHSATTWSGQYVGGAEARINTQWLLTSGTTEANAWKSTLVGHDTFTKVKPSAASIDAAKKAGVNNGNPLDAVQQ

Substance: biotin
- koff: 1.40 ± 0.59 s⁻¹
